Experimental findings from ChEMBL document CHEMBL1139813, “Synthesis and biological evaluation of amino-pyridines as androgen receptor antagonists for stimulating hair growth and reducing sebum production” (Bioorg Med Chem Lett, 2007) are described below.

The structures appear in SMILES notation. Calls of active or inactive are those of the source. The rule behind the calls is not given here. A value given as a limit tells only on which side of the number the result lay.

By IC50 is commonly meant the concentration at which inhibition is half-maximal. What is called clearance is the volume of plasma or blood freed of the substance per unit of time.

The target in series [1] is T1, Androgen receptor (Homo sapiens, UniProt P10275).
T1 sequence (P10275 whole entry): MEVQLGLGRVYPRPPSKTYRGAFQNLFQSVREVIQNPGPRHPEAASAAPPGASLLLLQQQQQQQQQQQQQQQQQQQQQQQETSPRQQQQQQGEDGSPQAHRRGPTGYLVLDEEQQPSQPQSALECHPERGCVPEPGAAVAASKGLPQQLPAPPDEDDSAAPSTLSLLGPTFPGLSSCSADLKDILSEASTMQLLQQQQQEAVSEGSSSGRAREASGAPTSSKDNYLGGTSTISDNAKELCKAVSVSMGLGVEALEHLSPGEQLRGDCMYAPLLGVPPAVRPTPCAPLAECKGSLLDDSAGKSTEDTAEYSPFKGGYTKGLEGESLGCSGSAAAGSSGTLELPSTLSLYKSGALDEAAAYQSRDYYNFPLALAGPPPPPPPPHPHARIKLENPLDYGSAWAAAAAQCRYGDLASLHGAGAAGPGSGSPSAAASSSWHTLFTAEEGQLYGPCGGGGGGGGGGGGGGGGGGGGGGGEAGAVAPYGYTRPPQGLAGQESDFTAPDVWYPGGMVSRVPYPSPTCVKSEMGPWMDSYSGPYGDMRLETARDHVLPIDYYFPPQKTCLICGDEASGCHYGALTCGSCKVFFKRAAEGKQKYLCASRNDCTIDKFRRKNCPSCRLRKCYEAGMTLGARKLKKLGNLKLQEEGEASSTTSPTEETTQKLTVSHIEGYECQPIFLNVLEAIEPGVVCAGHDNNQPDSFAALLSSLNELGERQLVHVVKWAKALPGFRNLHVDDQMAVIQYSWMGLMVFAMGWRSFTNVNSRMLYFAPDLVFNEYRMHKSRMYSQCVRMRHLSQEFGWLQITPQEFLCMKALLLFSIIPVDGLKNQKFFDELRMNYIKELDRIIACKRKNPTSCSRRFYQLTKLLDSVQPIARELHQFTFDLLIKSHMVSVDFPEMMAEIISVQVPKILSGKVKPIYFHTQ
The series is described as follows: biochemical.
Description: Displacement of [3H]dihydrotestosterone from human androgen receptor expressed in Sf9 cells

The target of series [2] is T1, Androgen receptor.
Description: Antagonist activity at human androgen receptor expressed in MDA-MB-453 cells
For series [3], the system named is Syrian golden hamster. The series is described as follows: Reduction in sebum production in syrian hamster ear model at 3% concentration administered for 5 days, bid per week for 2 weeks. Also noted: scale not given: the % may be the effect or the level left. The series is classed as functional, Mesocricetus auratus.
For series [4], the system named is Mus musculus. As to the kind of experiment: Stimulation of hair growth in C3H/HeN mouse at 3% concentration administered for 5 days, bid per week for 4 weeks. The series is classed as functional, organism-based.
Series [5] can be described thus: Clearance in Beagle dog plasma at 0.5 mg/kg, iv. In kind it is ADME, organism-based, Canis lupus familiaris. Also noted: dose 0.5 mg/kg, route intravenous.

Take `N#Cc1cnc(N2CCCCC2)cc1C(F)(F)F`: the values for the IC50 in series [1] and in series [2] were 0.209 µM and 0.422 µM, respectively.

Regarding `CC1(C)C(=O)N(c2ccc(C#N)c(C(F)(F)F)c2)C(=O)N1CCCCO` [RU-58841], in series [3], the Activity is recorded as 92%.

Turning to `CC(c1ccccc1)N(C)c1cc(C(F)(F)F)c(C#N)cn1` (stereo not drawn), half-maximal inhibition in series [2] (IC50) was put at 0.229 µM.

Consider `C[C@@H](c1ccccc1)N(C)c1cc(C(F)(F)F)c(C#N)cn1`, for which the IC50 in series [1] was found to be 1.7 µM.

Turning to `N#Cc1cnc(N2CCC3CCCCC3C2)cc1C(F)(F)F` (stereo not drawn), the 50% inhibitory concentration (IC50) in series [1] was 0.169 µM; in series [2], 0.26 µM.

On to `CCC(C)N(C)c1cc(C(F)(F)F)c(C#N)cn1` (stereo not drawn), for which the IC50 in series [1] is 0.007 µM; in series [2], greater than 1 µM.

`C[C@H](c1ccccc1)N(C)c1cc(C(F)(F)F)c(C#N)cn1` returned an Activity in series [3] of 83%. Further, the result in series [4] was Active. This compound also came in with an IC50 in series [2] of 0.045 µM. In series [5], the clearance amounted to 40 mL/min/kg.

For the compound `C[C@@H](Nc1cc(C(F)(F)F)c(C#N)cn1)c1ccccc1`, 4.93 µM corresponded to half-maximal inhibition in series [1] (IC50).

Turning to `CC1CCN(c2cc(C(F)(F)F)c(C#N)cn2)CC1`, the 50% inhibitory concentration (IC50) in series [1] came to 0.073 µM; in series [2] it was 0.136 µM.

With `CCCN(CCC)c1cc(C(F)(F)F)c(C#N)cn1`, the values for the IC50 in series [1] and in series [2] were 0.078 µM and greater than 1 µM, respectively.
